We go through one molecule from patent publication US9988348B1, “Synthesis and antimicrobial use of a trithiocarbonate derivative” (KING SAUD UNIVERSITY, priority 2017, dated 2018).

Common to all, as to assay type: cell-based
Experiment [1] deals with Aspergillus fumigatus AUMC 8794. Briefly: disk diffusion assay, inhibition zone. The conditions noted are these: A. fumigatus; 4 mg/disk; soluble water compound 4. As to the method: (§1) To evaluate antimicrobial activity of the compound 4, synthesized in our laboratory as novel anti-bacterial and anti-fungal agents, the inhibition zone diameter (mm) and the minimal inhibitory concentration were determined according to (Andrews 2001; Hudzicki 2009). The test carried out on several clinical microorganisms included Gram positive bacteria (Staphylococcus aureus ATCC and Streptococcus mutans ATCC 35668), Gram negative bacteria (Escherichia coli ATCC 25922, Salmonella typhimurium ATCC 14028 and Neisseria meningitides ATCC 1302); yeasts (Candid albicans ATCC 60193, Cryptococcus neoformans Wild strain and Candida parapsilosus ATCC 22019) and molds (Aspergillus fumigatus AUMC 8794, Penicillum chrysogenum AUMC 9476 and Fusarium sp.)
(§2) The clinical microorganisms were cultivated at least three times on suitable culture medium and incubating conditions before susceptibility test. The concentration of microbial inoculation suspensions in sterile sodium chloride solution (0.89%) were adjusted to 0.65 at 620 nm by spectrophotometer. […]
(§3) After that, the disks were dried at 25° C. under sterile conditions by safety biological cabinet. A Mueller-Hinton agar (MHA) (Scharlau Microbiogy, Spain) and a potato dextrose agar (PDA) (Scharlau, Spain) were used to perform antibacterial and antifungal test respectively. The media were prepared according to manufacturer's guidelines. To prepare one liter of MHA and one liter of PDA, 21 grams of MHA and 39 grams of PDA were dissolved in one liter of sterile distilled water, followed by sterilization at 121° C. for 15 minutes by an autoclave (HL-321, Taiwan). The sterilized media were poured in sterile plastic Petri dishes at 50° C. The plates were allowed to let the medium solidify at room temperature. 0.1 ml of microbial inoculation suspensions were spread on dried surface of medium and were kept at 25° C. for 5-10 minutes. The compound 4 and standard antimicrobial drugs discs (Table 1) were dispensed on the surface of inoculated media. The tested bacteria and fungi were incubated at 37±1° C. for 19-22 hours and at 25±1 for 48-72 hours respectively. After the incubation, the diameter of inhibition zone (millimeter) resulting from the biological activity of compound were recorded.
Background: In agar diffusion tests the substance spreads into inoculated agar from a disc or well.

Experiment [2] deals with Candid albicans ATCC 60193. Briefly: disk diffusion assay, inhibition zone. The conditions noted are these: C. albicans; 4 mg/disk; soluble water compound 4. As to the method: as §1, §2, §3
The subject of experiment [3] is Candida parapsilosus ATCC 22019. In words: disk diffusion assay, inhibition zone. The settings on record: C. parasilosus; 4 mg/disk; soluble water compound 4. On the procedure: as §1, §2, §3
For experiment [4], the system named is Escherichia coli ATCC 25922. In words: disk diffusion assay, inhibition zone. The settings on record: E. coli; 4 mg/disk; soluble water compound 4. As to the method:
as §1, §2, §3

Experiment [5] concerns Fusarium sp. Briefly: disk diffusion assay, inhibition zone. The settings on record: Fusarium sp.; 4 mg/disk; soluble water compound 4. As to the method: as §1, §2, §3
The test system of experiment [6] is Penicillum chrysogenum AUMC 9476. Briefly: disk diffusion assay, inhibition zone. The conditions noted are these: P. chrysoginum; 4 mg/disk; soluble water compound 4. As to the method:
as §1, §2, §3

For experiment [7], the system named is Salmonella typhimurium ATCC 14028. In words: disk diffusion assay, inhibition zone. The conditions noted are these: Sa. typhimurium; 4 mg/disk; soluble water compound 4. As to the method: as §1, §2, §3
For experiment [8], the system named is Staphylococcus aureus ATCC. In words: disk diffusion assay, inhibition zone. The conditions noted are these: S. aureus; 4 mg/disk; soluble water compound 4. As to the method:
as §1, §2, §3

Experiment [9] concerns Streptococcus mutans ATCC 35668. In words: disk diffusion assay, inhibition zone. The settings on record: S. mutans. As to the method:
as §1, §2, §3

Experiment [10] concerns Aspergillus fumigatus AUMC 8794. Briefly: microdilution assay, minimal inhibitory concentration. The settings on record: AUMC8794, A. fumigatus, water-soluble form. On the procedure:
as §1
(§4) The minimal inhibitory concentration (MIC) of compound 4 (water-soluble form) was determined by a microdilution assay, using Mueller-Hinton broth (for bacteria) and Potato dextrose broth (for fungi). The compound 4 was dissolved in sterile culture broth (2 mg/mL). Two fold serial dilutions were carried out to obtain concentrations ranging from 2 to 0.008 mg/mL. 95 μL of each dilution were added in 96-well plates, then each well was inoculated with 5 μL of inoculation microbial suspension (5×10^8 colony form unit (CFU)/ml). The plates were incubated at suitable conditions according to tested microorganism. After the incubation, the microbial growth was detected in the wells by p-iodonitrotetrazolium violet (Sigma, USA) reagent. Each well received 20 μL of the reagent (0.5 mg/ml) and was then incubated at 37±1° C. for 30 min. A violet color indicated microbial growth in the well. The minimal inhibitory concentration (mg/ml) of the compound 4 was estimated as the lowest concentration that inhibited microbial growth.

Experiment [11] deals with Candid albicans ATCC 60193. The experiment is described as above. The conditions noted are these: Candida albicans, ATCC60193; C. albicans; water-soluble form. As to the method:
as §1, §4

The test system of experiment [12] is Candida parapsilosus ATCC 22019. The description is as above. The settings on record: ATCC22019, C. parasilosus, water-soluble form. As to the method: as §1, §4
Experiment [13] concerns Cryptococcus neoformans Wild strain. The description is as above. The conditions noted are these: C. neoformasn, water-soluble form. As to the method: as §1, §4
Experiment [14] concerns Escherichia coli ATCC 25922. The experiment is described as above. The settings on record: ATCC25922, E. coli, water-soluble form. As to the method:
as §1, §4

For experiment [15], the system named is Fusarium sp. The description is as above. The conditions noted are these: water-soluble form. As to the method:
as §1, §4

The subject of experiment [16] is Neisseria meningitides ATCC 1302. The experiment is described as above. The conditions noted are these: ATCC1302, N. meningitides, water-soluble form. As to the method:
as §1, §4

Experiment [17] relates to Penicillum chrysogenum AUMC 9476. Described as above. The conditions noted are these: P. chrysoginum; water-soluble form. On the procedure:
as §1, §4

The subject of experiment [18] is Salmonella typhimurium ATCC 14028. Described as above. The settings on record: Salmonella enterica; Sa. typhimurium; water-soluble form. On the procedure:
as §1, §4

Experiment [19] concerns Staphylococcus aureus ATCC. Described as above. The conditions noted are these: S. aureus, water-soluble form. As to the method:
as §1, §4

Experiment [20] deals with Streptococcus mutans ATCC 35668. The description is as above. The conditions noted are these: ATCC35668, S. mutans, water-soluble form. On the procedure: as §1, §4
Experiment [21] deals with MCF-7 human breast cancer cell lines. In words: in vitro anti-cancer test. The settings on record: water soluble form, 4 to 0.008 mg/mL. On the procedure: Biological activity of compound 4 (water soluble form) as anticancer in human breast cancer was evaluated according to (Kumar et al. 2014). Roswell Park Memorial Institute (RPMI)-1640 medium (Sigma, USA) were prepared according to manufacturer's guidelines and supplemented fetal bovine serum (10%). To avoid a microbial contamination, a streptomycin and penicillin were added to RPMI-1640. Several concentrations ranging from 4 to 0.008 mg/mL of compound 4 were tested.

Each structure is given as a SMILES string. Converted amounts (≈) assume the structure as drawn.

For orientation: MIC means the smallest concentration in the dilution series that meets the test's criterion for growth inhibition. A high value points to a need for much substance. As for `CCOC(=O)CSC(=S)SCC(=O)OCC` [Compound 4, diethyl 2,2′-(thiocarbonylbis(sulfanediyl))diacetate], the Inhibition zone diameter was 34.6 ± 0.5 A mm in experiment [1]; 20 ± 1 D mm in experiment [2]; 13 ± 1 E mm in experiment [3]; 11.6 ± 0.5 E mm in experiment [4]; 30 ± 1 B mm in [5]; 30.3 ± .5 B mm in experiment [6]. Further, the Inhibition zone diameter is reported as 8.6 ± 0.5 F mm in experiment [7]; 10.6 ± 0.5 F* mm in experiment [8]; 20 ± 1 D mm in experiment [9] (4 mg/disk, soluble water compound 4). The “biological activity, in words” value in [9] was “very good”. For the same molecule, the MIC in experiment [10] worked out at 31.2 mg/L (≈ 111 µM); in [11], 62.5 mg/L (≈ 221 µM); in experiment [12], 50 mg/L (≈ 177 µM); in [13] it was 31.2 mg/L (≈ 111 µM); in [14] it was 1000 mg/L (≈ 3540 µM); in experiment [15], 31.2 mg/L (≈ 111 µM). Also, the MIC in experiment [16] was determined as 62.5 mg/L (≈ 221 µM); in experiment [17] it was 31.2 mg/L (≈ 111 µM); in [18], 2000 mg/L (≈ 7080 µM); in experiment [19], 2000 mg/L (≈ 7080 µM); in experiment [20] it was 62.5 mg/L (≈ 221 µM). Besides, the “biological activity as anticancer” value in [21] is on record as “no biological activity”.
